In US11331299B2, “Medicinal use of serrulatane diterpenes” (The University of Sydney, priority 2016, dated 2022):
Where two headings read alike, the source gives them in different places.

Test system: 280 human cancer cell lines
Assay: OncoPanel cell proliferation assay (10-day)
Assay type: cell-based
Conditions: for EC50: read-out: Cell Count EC50; for IC50: read-out: Cell Count IC50
[1] = Homo sapiens, 22Rv1, 22Rv1, Prostate
[2] = Homo sapiens, 786-0, 786-O, Kidney
[3] = Homo sapiens, A7, Skin (Melanoma)
[4] = Homo sapiens, A101D, Skin (Melanoma)
[5] = Homo sapiens, A 172, A172, CNS - Glioma
[6] = Homo sapiens, A253, A-253, Head and Neck
[7] = Homo sapiens, A388, Head and Neck
[8] = Homo sapiens, A498, A498, Kidney
[9] = Homo sapiens, A549, A549, Lung - NSCLC
[10] = Homo sapiens, A673, A-673, Soft Tissue - Sarcoma
[11] = Homo sapiens, A704, A-704, Kidney
[12] = Homo sapiens, A-375, A375, Skin (Melanoma)
[13] = Homo sapiens, A-427, A427, Lung - NSCLC
[14] = Homo sapiens, A-431, A431, Head and Neck
[15] = Homo sapiens, AN3-CA, AN3 CA, Female GU - Uterus
[16] = Homo sapiens, ARH-77, ARH-77, Myeloma
[17] = Homo sapiens, ASPC1, AsPC-1, Pancreas
[18] = Homo sapiens, AU565, AU565, Breast
[19] = Homo sapiens, BCP-1, BCP-1, Lymphoma
[20] = Homo sapiens, BE(2)-C, BE(2)C, CNS - Neuroblastoma
[21] = Homo sapiens, BFTC-905, BFTC-905, Bladder
[22] = Homo sapiens, BHT-101, BHT-101, Endocrine - Thyroid
[23] = Homo sapiens, BM-1604, BM-1604, Prostate
[24] = Homo sapiens, BPH-1, BPH1, Prostate
[25] = Homo sapiens, BT-20, BT20, Breast

In the case of `CC(C)=CCC[C@H](C)[C@@H]1CC[C@@H](C)c2c1cc(C)c(O)c2O` [Compound 4, 7,8-dihydroxyserrulat-14-ene], the “Number of cell types, GI Activity Potent” value (GI50 range 0.03-0.099 μM, of 280 cell types) is reported as 0, the “Number of cell types, GI Activity moderately potent” value (GI50 range 0.1-0.99 μM, of 280 cell types) is reported as 1 and the “Number of cell types, GI Activity Strong” value (GI50 range 1-2.99 μM, of 280 cell types) is reported as 11. For the same molecule, the “Number of cell types, GI Activity moderately strong” value (GI50 range 3-9.99 μM, of 280 cell types) was 125, the “Number of cell types, GI Activity weak” value (GI50 range 10-30.00 μM, of 280 cell types) was 130 and the “Number of cell types, GI Activity very weak” value (GI50 range >30 μM, of 280 cell types) was 13. The GI50 (Homo sapiens, 12 cell lines with moderately potent to strong activity, read-out: GI50) was 0.68 to 2.92 µM, the EC50 [1] was 9.08 µM and the GI50 (Homo sapiens, 22Rv1, 22Rv1, Prostate, read-out: Cell Count GI50) was 9 µM. For the same molecule, the IC50 [1] was 9.08 µM, the EC50 (Homo sapiens, 647-V, Bladder) was 5.99 µM and the GI50 (Homo sapiens, 647-V, Bladder, read-out: Cell Count GI50) was 5.99 µM. For the same molecule, the IC50 (Homo sapiens, 647-V, Bladder) was 6 µM, the EC50 (Homo sapiens, 769-P, Kidney) was 3.72 µM and the GI50 (Homo sapiens, 769-P, Kidney, read-out: Cell Count GI50) was 3.71 µM. For the same molecule, the IC50 (Homo sapiens, 769-P, Kidney) was 3.72 µM, the EC50 [2] was 14 µM and the GI50 (Homo sapiens, 786-0, 786-O, Kidney, read-out: Cell Count GI50) was 13.9 µM. For the same molecule, the IC50 [2] was 14 µM, the EC50 (Homo sapiens, 5637, Bladder) was 15.2 µM and the GI50 (Homo sapiens, 5637, Bladder, read-out: Cell Count GI50) was 15.1 µM. It also gave an IC50 (Homo sapiens, 5637, Bladder) of 15.2 µM, an EC50 [3] of 10.5 µM and a GI50 (Homo sapiens, A7, Skin (Melanoma), read-out: Cell Count GI50) of 10.5 µM. For the same molecule, the IC50 [3] was 10.5 µM, the EC50 [4] was > 30 µM and the GI50 (Homo sapiens, A101D, Skin (Melanoma), read-out: Cell Count GI50) was > 30 µM. The IC50 [4] was > 30 µM, the EC50 [5] was 8.08 µM and the GI50 (Homo sapiens, A 172, A172, CNS - Glioma, read-out: Cell Count GI50) was 8.03 µM. It also gave an IC50 [5] of 8.08 µM, an EC50 [6] of 18.2 µM and a GI50 (Homo sapiens, A253, A-253, Head and Neck, read-out: Cell Count GI50) of 18.1 µM. The IC50 [6] was 18.2 µM, the EC50 [7] was 7.66 µM and the GI50 (Homo sapiens, A388, Head and Neck, read-out: Cell Count GI50) was 7.59 µM. The IC50 [7] was 7.66 µM, the EC50 [8] was 12.3 µM and the GI50 (Homo sapiens, A498, A498, Kidney, read-out: Cell Count GI50) was 12.2 µM. It also gave an IC50 [8] of 12.3 µM, an EC50 [9] of 10.9 µM and a GI50 (Homo sapiens, A549, A549, Lung - NSCLC, read-out: Cell Count GI50) of 10.8 µM. It also gave an IC50 [9] of 10.9 µM, an EC50 [10] of 2.88 µM and a GI50 (Homo sapiens, A673, A-673, Soft Tissue - Sarcoma, read-out: Cell Count GI50) of 2.87 µM. The IC50 [10] was 2.88 µM, the EC50 [11] was 5.7 µM and the GI50 (Homo sapiens, A704, A-704, Kidney, read-out: Cell Count GI50) was 5.41 µM. For the same molecule, the IC50 [11] was 5.7 µM, the EC50 [12] was 5.74 µM and the GI50 (Homo sapiens, A-375, A375, Skin (Melanoma), read-out: Cell Count GI50) was 5.74 µM. For the same molecule, the IC50 [12] was 5.74 µM, the EC50 [13] was 10 µM and the GI50 (Homo sapiens, A-427, A427, Lung - NSCLC, read-out: Cell Count GI50) was 9.98 µM. For the same molecule, the IC50 [13] was 10 µM, the EC50 [14] was 24.8 µM and the GI50 (Homo sapiens, A-431, A431, Head and Neck, read-out: Cell Count GI50) was 24.8 µM. The IC50 [14] was 24.8 µM, the EC50 (Homo sapiens, ACHN, Kidney) was 9.5 µM and the GI50 (Homo sapiens, ACHN, Kidney, read-out: Cell Count GI50) was 9.47 µM. The IC50 (Homo sapiens, ACHN, Kidney) was 9.5 µM, the EC50 (Homo sapiens, AGS, Stomach) was 5.25 µM and the GI50 (Homo sapiens, AGS, Stomach, read-out: Cell Count GI50) was 5.24 µM. It also gave an IC50 (Homo sapiens, AGS, Stomach) of 5.25 µM, an EC50 [15] of 9.62 µM and a GI50 (Homo sapiens, AN3-CA, AN3 CA, Female GU - Uterus, read-out: Cell Count GI50) of 9.43 µM. The IC50 [15] was 9.62 µM, the EC50 [16] was 13.5 µM and the GI50 (Homo sapiens, ARH-77, ARH-77, Myeloma, read-out: Cell Count GI50) was 13.4 µM. It also gave an IC50 [16] of 13.5 µM, an EC50 [17] of 14.7 µM and a GI50 (Homo sapiens, ASPC1, AsPC-1, Pancreas, read-out: Cell Count GI50) of 14.5 µM. The IC50 [17] was 14.7 µM, the EC50 [18] was 10.1 µM and the GI50 (Homo sapiens, AU565, AU565, Breast, read-out: Cell Count GI50) was 10 µM. The IC50 [18] was 10.1 µM, the EC50 (Homo sapiens, BC-1, Lymphoma) was 4.16 µM and the GI50 (Homo sapiens, BC-1, Lymphoma, read-out: Cell Count GI50) was 4.16 µM. It also gave an IC50 (Homo sapiens, BC-1, Lymphoma) of 4.16 µM, an EC50 [19] of 8.82 µM and a GI50 (Homo sapiens, BCP-1, BCP-1, Lymphoma, read-out: Cell Count GI50) of 8.75 µM. It also gave an IC50 [19] of 8.82 µM, an EC50 [20] of 13.1 µM and a GI50 (Homo sapiens, BE(2)-C, BE(2)C, CNS - Neuroblastoma, read-out: Cell Count GI50) of 13 µM. It also gave an IC50 [20] of 13.1 µM, an EC50 [21] of 9.7 µM and a GI50 (Homo sapiens, BFTC-905, BFTC-905, Bladder, read-out: Cell Count GI50) of 9.68 µM. For the same molecule, the IC50 [21] was 9.7 µM, the EC50 [22] was 6.8 µM and the GI50 (Homo sapiens, BHT-101, BHT-101, Endocrine - Thyroid, read-out: Cell Count GI50) was 6.77 µM. The IC50 [22] was 6.8 µM, the EC50 [23] was > 30 µM and the GI50 (Homo sapiens, BM-1604, BM-1604, Prostate, read-out: Cell Count GI50) was > 30 µM. For the same molecule, the IC50 [23] was > 30 µM, the EC50 [24] was 17.3 µM and the GI50 (Homo sapiens, BPH-1, BPH1, Prostate, read-out: Cell Count GI50) was 17.3 µM. For the same molecule, the IC50 [24] was 17.3 µM, the EC50 [25] was 14.1 µM and the GI50 (Homo sapiens, BT-20, BT20, Breast, read-out: Cell Count GI50) was 13.9 µM. It also gave an IC50 [25] of 14.3 µM and an EC50 (Homo sapiens, BT-474, BT474, Breast) of 25.5 µM.
